Experimental data as given in patent publication US7569554B2, “Synergistic treatment of cancer using immunomers in conjunction with therapeutic agents” (Idera Pharmaceuticals, Inc., priority 2003, dated 2009).

Key:
[1] = test system: vertebrate cells, preferably BALB/c mouse spleen cells or human PBMC; experiment: Immunostimulatory activity, IL-12/IL-6 secretion (Tables 9-12, cell culture not given); format: cell-based
Method: (§1) The secretion of IL-12 and IL-6 in vertebrate cells, preferably BALB/c mouse spleen cells or human PBMC, was measured by sandwich ELISA. The required reagents including cytokine antibodies and cytokine standards were purchased form PharMingen, San Diego, Calif. ELISA plates (Costar) were incubated with appropriate antibodies at 5 μg/mL in PBSN buffer (PBS/0.05% sodium azide, pH 9.6) overnight at 4° C. and then blocked with PBS/i % BSA at 37° C. for 30 minutes. Cell culture supernatants and cytokine standards were appropriately diluted with PBS/10% FBS, added to the plates in triplicate, and incubated at 25° C. for 2 hours. Plates were overlaid with 1 μg/mL appropriate biotinylated antibody and incubated at 25° C. for 1.5 hours. The plates were then washed extensively with PBS-T Buffer (PBS/0.05% Tween 20) and further incubated at 25° C. for 1.5 hours after adding streptavidin conjugated peroxidase (Sigma, St. Louis, Mo.). The plates were developed with Sure Blue™ (Kirkegaard and Perry) chromogenic reagent and the reaction was terminated by adding Stop Solution (Kirkegaard and Perry). The color change was measured on a Ceres 900 HDI Spectrophotometer (Bio-Tek Instruments).
(§2) In all instances, the levels of IL-12 and IL-6 in the cell culture supernatants were calculated from the standard curve constructed under the same experimental conditions for IL-112 and IL-6, respectively. The levels of IL-10, IFN-gamma and TNF-α in the cell culture supernatants were calculated from the standard curve constructed under the same experimental conditions for IL-10, IFN-gamma and TNF-α, respectively.

[2] = test system: BALB/c mouse spleen cells; experiment: Cytokine secretion in BALB/c mouse spleen cell cultures (sandwich ELISA); format: cell-based; conditions: for Induction of IL-12: FIG. 7A; for Induction of IL-12 / Induction of IL-6: compared with Oligo 1; for Induction of IL-6: FIG. 7B
Method: as §1, §2

BALB/c mice = experiment: In vivo serum cytokine induction; parameters: species or system mouse; conditions: 4 hrs
Method: To assess serum cytokine levels, BALB/c mice (n=5) were injected intraperitoneally (i.p), subcutaneously (s.c) or intramuscularly (i.m) with IMO compounds at 10 mg/kg (single dose). Sera was collected by retro-orbital bleeding at 4 hrs of IMO administration and determined IL-112 and IL-6 by sandwich ELISA. Cytokine antibodies and standards were purchased from PharMingen (San Diego, Calif.).
To evaluate the immunopharmacological effects in vivo, IMO compounds, CpG immunomers, and non-CpG oligos were administered to BALB/c mice i.p, s.c or i.m at a dose of 10 mg/kg and their serum was evaluated for IL-12 and IL-6 after 4 hrs.

human PBMC = experiment: Cytokine secretion in human PBMC cultures (sandwich ELISA); format: cell-based
Method: as §1
Human peripheral blood mononuclear cells (PBMCs) were isolated from peripheral blood of healthy volunteers by Ficoll-Paque density gradient centrifugation (Histopaque-1077, Sigma, St. Louis, Mo.). Briefly, heparinized blood was layered onto the Histopaque-1077 (equal volume) in a conical centrifuge and centrifuged at 400×g for 30 minutes at room temperature. The buffy coat, containing the mononuclear cells, was removed carefully and washed twice with isotonic phosphate buffered saline (PBS) by centrifugation at 250×g for 10 minutes. The resulting cell pellet was then resuspended in RPMI 1640 medium containing L-glutamine (MediaTech, Inc., Hemdon, Va.) and supplemented with 10% heat inactivated FCS and penicillin-streptomycin (100 U/ml). Cells were cultured in 24 well plates for different time periods at 1×10^6 cells/ml/well in the presence or absence of oligonucleotides. At the end of the incubation period, supernatants were harvested and stored frozen at −70° C. until assayed for various cytokines including IL-6 (BD Pharmingen, San Diego, Calif.), IL-10 (BD Pharmingen), IL-12 (BioSource International, Camarillo, Calif.), IFN-α (BioSource International) and -γ(BD Pharmingen) and TNF-α(BD Pharmingen) by sandwich ELISA.
as §2

[3] = Intraperitoneal (i.p), 10 mg/kg

## Immunomer 67: SEQ ID NO: 6, 14mer (DNA CTGANGTTCTCTGT; listed as DNA, chemistry not fully specified)
[1]; 3 μg/mL, Table 11
  IL-6: 152 pg/mL
  IL-12: 548 pg/mL

## Immunomer 77: SEQ ID NO: 37, 10mer (DNA CTGACGTTCT; DNA, backbone and methylation of C not given here; immunomer: two 10mer chains joined by non-nucleotidic linker, linker varies, further chemistry not fully specified)
[1]; 0.3 μg/mL, Table 12
  IL-12: 264 pg/mL
[1]; 1 μg/mL, Table 12
  IL-6: 543 pg/mL

## 3′-TTCCAGCTCGCAAGAG-5′-5′-GAGAACGCTCGACCTT-3′ [Immunomer 3]
[2]
  Induction of IL-12: equal or weaker ability to produce immune stimulation compared with oligo 1
  Induction of IL-6: equal or weaker ability to induce immune stimulation compared with Oligo 1

## Immunomer 79: SEQ ID NO: 37, 10mer (DNA CTGACGTTCT; listed as DNA, chemistry not fully specified)
[1]; 0.3 μg/mL, Table 12
  IL-12: 2255 pg/mL
[1]; 1 μg/mL, Table 12
  IL-6: 2034 pg/mL

## Immunomer 75: SEQ ID NO: 37, 10mer (DNA CTGACGTTCT; DNA, backbone and methylation of C not given here; immunomer: two 10mer chains joined by non-nucleotidic linker, linker varies, further chemistry not fully specified)
[1]; 0.3 μg/mL, Table 12
  IL-12: 1074 pg/mL
[1]; 1 μg/mL, Table 12
  IL-6: 1375 pg/mL

## Immunomer 74: SEQ ID NO: 37, 10mer (DNA CTGACGTTCT; DNA, backbone and methylation of C not given here; immunomer: two 10mer chains joined by non-nucleotidic linker, linker varies, further chemistry not fully specified)
[1]; 0.3 μg/mL, Table 12
  IL-12: 1162 pg/mL
[1]; 1 μg/mL, Table 12
  IL-6: 669 pg/mL

## Immunomer 61: SEQ ID NO: 34, 11mer (DNA TCTGTNGTTCT; listed as DNA, chemistry not fully specified)
[1]; 3 μg/mL, Table 10
  IL-6: 470 pg/mL
  IL-12: 1127 pg/mL

## Immunomer 78: SEQ ID NO: 37, 10mer (DNA CTGACGTTCT; DNA, backbone and methylation of C not given here; immunomer: two 10mer chains joined by non-nucleotidic linker, linker varies, further chemistry not fully specified)
[1]; 0.3 μg/mL, Table 12
  IL-12: 1750 pg/mL
[1]; 1 μg/mL, Table 12
  IL-6: 2258 pg/mL

## 5′-CTCACTTTCGTTCTCTGT-3′ [Oligo 51]
[1]; @ 3 μg/mL, Table 9
  IL-6: 348 pg/mL
  IL-12: 404 pg/mL

## 5′-CTATCTCACCTTCTCTGT-3′ (DNA, backbone not given here) [Non-CpG, reference compound]
BALB/c mice; 10 mg/kg i.p, s.c or i.m
  Serum IL-12 induction: insignificant
BALB/c mice; 10 mg/kg, all three routes of administration
  Serum IL-6 induction: insignificant
BALB/c mice; Intramuscular (i.m), 10 mg/kg
  IL-12 (serum): 1.6 ± 0.07 ng/mL
BALB/c mice; [3]
  IL-6 (serum): 0.7 ± 0.3 ng/mL
  IL-12 (serum): 0.86 ± 0.5 ng/mL
BALB/c mice; Subcutaneous (s.c), 10 mg/kg
  IL-12 (serum): 1.7 ± 0.04 ng/mL

## Immunomer 57: SEQ ID NO: 32, 11mer (DNA TCTTTNGTTCT; listed as DNA, chemistry not fully specified)
[1]; @ 3 μg/mL, Table 9
  IL-6: 365 pg/mL
  IL-12: 591 pg/mL

## Immunomer 58: SEQ ID NO: 33, 11mer (DNA TCTTTCNTTCT; listed as DNA, chemistry not fully specified)
[1]; @ 3 μg/mL, Table 9
  IL-6: 283 pg/mL
  IL-12: 303 pg/mL

## Immunomer 70: SEQ ID NO: 24, 11mer (DNA TCTGACNTTCT; listed as DNA, chemistry not fully specified)
[1]; 3 μg/mL, Table 11
  IL-6: 1741 pg/mL
  IL-12: 1780 pg/mL

## Immunomer 68: SEQ ID NO: 7, 14mer (DNA CTGACNTTCTCTGT; listed as DNA, chemistry not fully specified)
[1]; 3 μg/mL, Table 11
  IL-6: 1020 pg/mL
  IL-12: 1052 pg/mL

## Immunomer 65: SEQ ID NO: 4, 18mer (DNA CTATCTGANGTTCTCTGT; listed as DNA, chemistry not fully specified)
[1]; 3 μg/mL, Table 11
  IL-6: 192 pg/mL
  IL-12: 443 pg/mL

## Immunomer 62: SEQ ID NO: 35, 11mer (DNA TCTGTCNTTCT; listed as DNA, chemistry not fully specified)
[1]; 3 μg/mL, Table 10
  IL-6: 296 pg/mL
  IL-12: 787 pg/mL

## Immunomer 81: SEQ ID NO: 37, 10mer (DNA CTGACGTTCT; listed as DNA, chemistry not fully specified)
[1]; 0.3 μg/mL, Table 12
  IL-12: 3625 pg/mL
[1]; 1 μg/mL, Table 12
  IL-6: 2642 pg/mL

## Immunomer 83: SEQ ID NO: 37, 10mer (DNA CTGACGTTCT; listed as DNA, chemistry not fully specified)
[1]; 0.3 μg/mL, Table 12
  IL-12: 1241 pg/mL
[1]; 1 μg/mL, Table 12
  IL-6: 1964 pg/mL

## 5′-CTATCTGACGTTCTCTGT-3′ (DNA, all phosphorothioate, methylation of C not given here) [Oligonucleotide 4]
[2]; 0.3 μg/mL, Table 13
  IL-12: 225 pg/mL
[2]; 1 μg/mL, Table 13
  IL-6: 1462 pg/mL
[1]; 0.3 μg/mL, Table 12
  IL-12: 257 pg/mL
[1]; 1 μg/mL, Table 12
  IL-6: 635 pg/mL
[1]; 3 μg/mL, Table 11
  IL-6: 1892 pg/mL
  IL-12: 1176 pg/mL

## 5′-CTATCTGTCGTTCTCTGT-3′ (phosphorothioate, further chemistry not given here) [Oligo 25, 18mer (PS)]
Human PBMC; donor 1 (D1)
  IFN-γ: 125 pg/mL
  IL-6: 3077 pg/mL
  IL-10: 37 pg/mL
  IL-12: 184 pg/mL
  TNF-α: 537 pg/mL
Human PBMC; donor 2 (D2)
  IFN-γ: 84 pg/mL
  IL-6: 5369 pg/mL
  IL-10: 88 pg/mL
  IL-12: 332 pg/mL
[1]; 3 μg/mL, Table 10
  IL-6: 339 pg/mL
  IL-12: 379 pg/mL

## Immunomer 80: SEQ ID NO: 37, 10mer (DNA CTGACGTTCT; listed as DNA, chemistry not fully specified)
[1]; 0.3 μg/mL, Table 12
  IL-12: 1493 pg/mL
[1]; 1 μg/mL, Table 12
  IL-6: 1197 pg/mL

## Immunomer 69: SEQ ID NO: 36, 11mer (DNA TCTGANGTTCT; listed as DNA, chemistry not fully specified)
[1]; 3 μg/mL, Table 11
  IL-6: 2724 pg/mL
  IL-12: 2050 pg/mL

## Immunomer 76: SEQ ID NO: 37, 10mer (DNA CTGACGTTCT; DNA, backbone and methylation of C not given here; immunomer: two 10mer chains joined by non-nucleotidic linker, linker varies, further chemistry not fully specified)
[1]; 0.3 μg/mL, Table 12
  IL-12: 563 pg/mL
[1]; 1 μg/mL, Table 12
  IL-6: 705 pg/mL

## Immunomer 73: SEQ ID NO: 37, 10mer (DNA CTGACGTTCT; listed as DNA, chemistry not fully specified)
[1]; 0.3 μg/mL, Table 12
  IL-12: 697 pg/mL
[1]; 1 μg/mL, Table 12
  IL-6: 1454 pg/mL

## 5-GAGAACGCTCGACCTT-3′-3′-TTCCAGCTCGCAAGAG-5′ [Immunomer 2]
[2]
  Induction of IL-12: stronger inducer of IL-12 than monomeric Oligo 1
  Induction of IL-6: stronger inducer of IL-6 than monomeric Oligo 1
[2]; FIGS. 7A-C
  Elevation of IL-12, IL-6 and IL-10: elevates IL-12 and IL-6, but not IL-10 at lower concentrations than Oligonucleotides 1 or 3

## Immunomer 66: SEQ ID NO: 5, 18mer (DNA CTATCTGACNTTCTCTGT; listed as DNA, chemistry not fully specified)
[1]; 3 μg/mL, Table 11
  IL-6: 464 pg/mL
  IL-12: 627 pg/mL

## Immunomer 82: SEQ ID NO: 37, 10mer (DNA CTGACGTTCT; listed as DNA, chemistry not fully specified)
[1]; 0.3 μg/mL, Table 12
  IL-12: 4248 pg/mL
[1]; 1 μg/mL, Table 12
  IL-6: 2988 pg/mL
